Read-outs that look alike come from different tables or passages of the source.
Tests used:
KB Ch^R -8-5 Cells [1] = experiment: Vinca (VCR, VLB) accumulation, anti-MDR activity; format: cell-based; details: Homo sapiens, compound 100 μM, 2 h, room temperature, mean of two experiments, SD <10%
Method: The resistance of the KBCh®-8-5 cells was maintained by culturing them with colchicine (10 ng/ml).
Then, 2 mL of cell suspensions (2×10^6) were plated in 35×10 mm style "easy grip" culture dishes (Becton Dickinson Co., Lincoln Park, N.J.). Cells were allowed to attach to plastic overnight at 37° C. Medium was aspirated and cells were washed with (2×2 mL) physiologic tris (PT) buffer. […] VCR (sp.act. 7.1 ci/mmol) or 49.5 nm [^3 H] […] After 2 h of incubation at room temperature, medium was rapidly aspirated to terminate drug accumulation, and monolayers were washed four times with ice-cold PBS (g/L: NaCL 8.0; Na2 HPO4.12H2 O, 2.9; KCl 0.2; KH2 PO4, 0.2) and drained. To each dish, 1 ml of trypsin-EDTA (0.05% trypsin, 0.53 mM EDTA) was added. After 1 minute, monolayers were triturated to give a uniform suspension of cells, and radioactivity in 0.75 ml was determined by scintillation counting. Cell number per dish was determined on 200 μl of suspension using the method of Butler, and amounts of intracellular VCR or VLB were determined.

GC3 /CL [2] = experiment: Cytotoxicity of N-substituted phenoxazines to tumor cells (clonogenic survival); format: cell-based; details: Homo sapiens, 168 h, 7 days, 37° C., read-out: IC50 (50% reduction in clonogenic survival)
Method: (§1) The KBCh®-8-5 cells were plated in triplicate at a density of 1000 cells per well and GC3 at 3000 cells per well in Falcon 6-well flat-bottom tissue culture plates (Becton Dickinson Co., Lincoln Park, N.J.). After 24 h, incubation medium was replaced with 3 mL of fresh medium containing compounds 1-4 or 10-14 or 18 at concentrations ranging from 1-100 μm (final culture concentration, 0.1% DMSO), and cells were incubated at 37° C. for a further 7 days. The medium was aspirated and cells were washed once with 2 mL of 0.9% saline and dried overnight. Colonies were stained with 1 mL of 0.1% crystal violet followed by washing twice with distilled water and were counted using an automated ARTEK Model 880 colony counter. The IC50 values were determined from concentration-percent-cell-survival curves and were defined as the concentrations of phenoxazines required for 50% reduction in colonies compared to controls.
(§2) ^a IC50 is the concentration required to produce 50% reduction i
(§3) clonogenic survivial of GC3 /Cl and KBCH^R -85 cells under the
(§4) conditions described in Example 23.

KBCh^R -8-5 = experiment: as above; format: cell-based; details: Homo sapiens, 168 h, 7 days, 37° C., read-out: IC50 (50% reduction in clonogenic survival)
Method: as §1, §2, §3, §4

GC3 /Cl Cells [3] = experiment: Vinca (VCR, VLB) accumulation, anti-MDR activity; format: cell-based; details: Homo sapiens, compound 100 μM, 2 h, room temperature, mean of two experiments, SD <10%
GC3 /CL [4] = experiment: Resistance of cell line to VCR; format: cell-based, human; details: relative to KB-3-1
Method: (§5) A cloned line of human colon adenocarcinoma, GC3 /Cl^31, which is intrinsically resistant to VCR (≈4-fold relative to KB-3-1), was routinely grown at 37° C. in antibiotic-free RPMI-1640 medium supplemented with 2 mM glutamine and 10% FBS (Hyclone Laboratories, Inc., Logan, Utah) in a humidified atmosphere of 5% CO2 and 95% air. Human epidermoid carcinoma KB-3-1 cells and a colchicine selected MDR variant, KBCh®-8-5, were obtained which was cross-resistant to VCR (45-fold) and VLB (6.3-fold); it was grown in monolayer culture at 37° C. in DMEM with 10% FBS and L-glutamine in a humidified atmosphere of 10% CO2 in air. The resistance of the KBCh®-8-5 cells was maintained by culturing them with colchicine (10 ng/ml).

KB Ch^R -8-5 Cells [5] = experiment: Potentiation of cytotoxicity of vincristine and vinblastine; format: cell-based; details: Homo sapiens, 168 h
Method: (§6) Tumor cells were treated with graded concentrations of VCR and VLB in the absence or presence of nontoxic concentrations of the products of Examples 1, 3, 4 and 18. The plates were then transferred to a CO2 incubator and, after further incubation for 7 days at 37° C., colonies were enumerated as described in Example 23.
(§7) ^a IC50 concentration of modulator

GC3 /Cl Cells [6] = experiment: as above; format: cell-based; details: Homo sapiens, 168 h
Method: as §6, §7

KBCh®-8-5 = experiment: Cross-resistance of cell line to VCR and VLB; format: cell-based, human; details: KBCh®-8-5, colchicine selected MDR variant
Method: as §5

MDR = details: in model systems; cited from earlier work
KBCh®-8-5 cells = details: compared with verapamil; cited from earlier work
MDR GC3 /Cl cells = details: compared with verapamil; cited from earlier work
[7] = [3H] VCR 70.4 nm, read-out: Vinca Accumulation, VCR
[8] = [3H] VLB 49.5 nm, read-out: Vinca Accumulation, VLB

Row | SMILES | activity at 100 µM (KB Ch^R -8-5 Cells [1]; [7]) | IC50 (KBCh^R -8-5) | activity at 100 µM (GC3 /Cl Cells [3]; [7]) | other results
1 | ClCCCN1c2ccccc2Oc2ccccc21 [Compound 1, 10-(3'-chloropropyl)-phenoxazine] | 454% | 57 µM | 846% | IC50 (GC3 /CL [2]): 83 µM
2 | CCN(CC)CCCN1c2ccccc2Oc2ccccc21 [Compound 2, 10-(3'-diethylaminopropyl)phenoxazine] | 546% | 15 µM | 439% | 
3 | OCCN(CCO)CCCN1c2ccccc2Oc2ccccc21 [Compound 3, 10-(3'-bishydroxyethylaminopropyl)phenoxazine] | 473% | 38 µM | 464% | IC50 (GC3 /CL [2]): 37 µM
4 | c1ccc2c(c1)Oc1ccccc1N2CCCN1CCOCC1 [Compound 4, 10-(3'-N-morpholinopropyl)phenoxazine] | 742% | 73 µM | 634% | IC50 (GC3 /CL [2]): 40 µM
5 | c1ccc2c(c1)Oc1ccccc1N2CCCN1CCCCC1 [Compound 5, 10-(3'-N-piperidinopropyl)phenoxazine] | 435% |  | 282% | 
6 | OCCN1CCN(CCCN2c3ccccc3Oc3ccccc32)CC1 [Compound 6, 10-(3'-β-hydroxyethylpiperazinopropyl) phenoxazine] | 343% |  | 368% | 
7 | c1ccc2c(c1)Oc1ccccc1N2CCCN1CCCC1 [Compound 7, 10-(3'-N-pyrrolidinopropyl)phenoxazine] | 408% |  | 250% | 
8 | ClCCCCN1c2ccccc2Oc2ccccc21 [Compound 8, 10-(4'-chlorobutyl)phenoxazine] | 398% |  | 317% | 
9 | CCN(CC)CCCCN1c2ccccc2Oc2ccccc21 [Compound 9, 10-(4'-diethylaminobutyl)phenoxazine] | 211% |  | 325% | 
10 | OCCN(CCO)CCCCN1c2ccccc2Oc2ccccc21 [Compound 10, 10-(4'-bishydroxyethylaminobutyl) phenoxazine] | 92% | < 10 µM | 382% | IC50 (GC3 /CL [2]): 16 µM
11 | c1ccc2c(c1)Oc1ccccc1N2CCCCN1CCOCC1 [Compound 11, 10-(4'-N-morpholinobutyl)phenoxazine] | 702% | 18 µM | 477% | IC50 (GC3 /CL [2]): 27 µM
12 | c1ccc2c(c1)Oc1ccccc1N2CCCCN1CCCCC1 [Compound 12, 10-(4'-N-piperidinobutyl)phenoxazine] | 196% | < 10 µM | 416% | IC50 (GC3 /CL [2]): 7 µM
13 | OCCN1CCN(CCCCN2c3ccccc3Oc3ccccc32)CC1 [Compound 13, 10-(4'-β-hydroxyethylpiperazinobutyl) phenoxazine] | 91% | < 10 µM | 543% | activity at 100 µM (KB Ch^R -8-5 Cells [1]; [8]): 188%; IC50 (GC3 /CL [2]): 7 µM
14 | c1ccc2c(c1)Oc1ccccc1N2CCCCN1CCCC1 [Compound 14, 10-(4'-N-pyrrolidinobutyl)phenoxazine] | 198% | < 10 µM | 412% | activity at 100 µM (KB Ch^R -8-5 Cells [1]; [8]): 477%; IC50 (GC3 /CL [2]): 8 µM
15 | O=C(CCl)N1c2ccccc2Oc2ccccc21 [Compound 15, 10-(chloroacetyl)phenoxazine] | 138% |  | 171% | activity at 100 µM (KB Ch^R -8-5 Cells [1]; [8]): 236%; activity at 100 µM (GC3 /Cl Cells [3]; [8]): 284%
16 | CCN(CC)CC(=O)N1c2ccccc2Oc2ccccc21 [Compound 16, 10-(diethylaminoacetyl)phenoxazine] | 184% |  | 160% | activity at 100 µM (KB Ch^R -8-5 Cells [1]; [8]): 953%; activity at 100 µM (GC3 /Cl Cells [3]; [8]): 305%
17 | O=C(CN1CCOCC1)N1c2ccccc2Oc2ccccc21 [Compound 17, 10-(N-morpholinoacetyl)phenoxazine] | 290% |  | 213% | activity at 100 µM (KB Ch^R -8-5 Cells [1]; [8]): 674%; activity at 100 µM (GC3 /Cl Cells [3]; [8]): 298%
18 | O=C(CN1CCCCC1)N1c2ccccc2Oc2ccccc21 [Compound 18, 10-(N-piperidinoacetyl)phenoxazine] | 326% | 73 µM | 177% | activity at 100 µM (GC3 /Cl Cells [3]; [8]): 446%
19 | O=C(CN1CCN(CCO)CC1)N1c2ccccc2Oc2ccccc21 [Compound 19, 10-(β-hydroxyethylpiperazinoacetyl)phenoxazine] | 280% |  | 157% | activity at 100 µM (KB Ch^R -8-5 Cells [1]; [8]): 776%; activity at 100 µM (GC3 /Cl Cells [3]; [8]): 426%
20 | O=C(CN1CCCC1)N1c2ccccc2Oc2ccccc21 [Compound 20, 10-(N-pyrrolidinoacetyl)phenoxazine] | 188% |  | 151% | activity at 100 µM (KB Ch^R -8-5 Cells [1]; [8]): 776%; activity at 100 µM (GC3 /Cl Cells [3]; [8]): 296%
21 | O=C(N1c2ccccc2Oc2ccccc21)C(F)(F)F [Compound 21, 10-(trifluoroacetyl)phenoxazine] | 415% |  | 230% | activity at 100 µM (KB Ch^R -8-5 Cells [1]; [8]): 827%; activity at 100 µM (GC3 /Cl Cells [3]; [8]): 222%
22 | CC[C@]1(O)C[C@H]2CN(CCc3c([nH]c4ccccc34)[C@@](C(=O)OC)(c3cc4c(cc3OC)N(C=O)[C@H]3[C@@](O)(C(=O)OC)[C@H](OC(C)=O)[C@]5(CC)C=CCN6CC[C@]43[C@@H]65)C2)C1 [VCR] |  |  |  | resistance to VCR (GC3 /CL [4]): ≈ 4 fold; IC50 (KB Ch^R -8-5 Cells [5]; read-out: IC50 of VCR alone): 0.032 µM; IC50 (GC3 /Cl Cells [6]; read-out: IC50 of VCR alone): 0.027 µM; cross-resistance to VCR (KBCh®-8-5): 45 fold
23 | CC[C@]1(O)C[C@@H]2CN(CCc3c([nH]c4ccccc34)[C@@](C(=O)OC)(c3cc4c(cc3OC)N(C)[C@H]3[C@@](O)(C(=O)OC)[C@H](OC(C)=O)[C@]5(CC)C=CCN6CC[C@]43[C@@H]65)C2)C1 [VLB] |  |  |  | IC50 (KB Ch^R -8-5 Cells [5]; read-out: IC50 of VLB alone): 0.02 µM; IC50 (GC3 /Cl Cells [6]; read-out: IC50 of VLB alone): 0.0074 µM; cross-resistance to VLB (KBCh®-8-5): 6.3 fold
24 | COc1ccc(CCN(C)CCCC(C#N)(c2ccc(OC)c(OC)c2)C(C)C)cc1OC (stereo not shown) [Verapamil] |  |  |  | modifying MDR (MDR): active in modifying MDR
25 | c1ccc2c(c1)Nc1ccccc1O2 [phenoxazine] |  |  |  | potentiation of uptake of VCR and VLB (KBCh®-8-5 cells): to a greater extent than verapamil; potentiation of uptake of VCR and VLB (MDR GC3 /Cl cells): to a greater extent than verapamil
26 | C=C[C@H]1C[N@@]2CC[C@H]1C[C@@H]2[C@@H](O)c1ccnc2ccc(OC)cc12 [quinidine] |  |  |  | modifying MDR (MDR): active in modifying MDR
27 | COC(=O)[C@H]1[C@H]2C[C@@H]3c4[nH]c5cc(OC)ccc5c4CCN3C[C@H]2C[C@@H](OC(=O)c2cc(OC)c(OC)c(OC)c2)[C@@H]1OC [reserpine] |  |  |  | modifying MDR (MDR): active in modifying MDR
28 | CN1CCN(CCCN2c3ccccc3Sc3ccc(C(F)(F)F)cc32)CC1 [trifluoperazine] |  |  |  | modifying MDR (MDR): active in modifying MDR
